# Patent publication US11191738B2, “Use of tamoxifen for the treatment of cystic fibrosis in patients of both sexes” (GB PHARMA S.R.L., priority 2016, dated 2021)
# Columns and labels:
# [1] = system: Ca-dependent chloride channels; assay: patch clamp, perforated whole-cell configuration, chloride currents in CF bronchial epithelial cells; format: cell-based
# Description: Our experiments were carried out on homozygous CFBE cells leading the F508del/F508 del mutation and on IB3-1 cells (immortalized cell line of bronchial epithelium cystic fibrosis cells, which bring F508del/W1282X mutation).
# (§1) The chloride currents through the Ca-dependent chloride channels were measured using the patch clamp technique in perforated whole-cell configuration. The whole-cell configuration was obtained not by breaking the membrane below the electrode, but thanks to the action of an ionophore (gramicidin, 10 μg/ml) which, forming pores through the membrane, guarantees electrical continuity between the solution for the electrode and the cytoplasm, while maintaining the cellular integrity. Thus, cytoplasmic components that might be important to the maintenance of channel activity are not removed after dialysis of the cytoplasm with the solution contained in the electrode. […]
# The solution for the electrode contained (mM): 145 KCl, 1 MgCl2, 10 HEPES, pH 7,25. […] The bath solution was hypertonic (measured osmolarity 337 mOsm) with respect to that of the electrode to inhibit the currents activated by swelling, present in the cells used also in isosmolarity conditions of the bath solution (as noted in previously carried out whole-cell experiments). […]
# CFTR channel = target: T1, CFTR channel (Homo sapiens, UniProt P13569, DEL508-508); assay: patch clamp chloride currents in tamoxifen-treated cells with CFTR inhibitor; format: cell-based; conditions: cells treated with tamoxifen 5 μM for 24 hours, then tamoxifen + CFTR inh (FIG. 3)
# T1 construct: having recorded the I/V in cells treated with tamoxifen for 24 hours; endogenous in cells; host or cells: CFBE (F508del/F508del) or IB3-1 (F508del/W1282X) cells
# Description: as §1
# The solution for the electrode contained (mM): 145 KCl, 1 MgCl2, 10 HEPES, pH 7,25. […] The bath solution was hypertonic (measured osmolarity 337 mOsm) with respect to that of the electrode to inhibit the currents activated by swelling, present in the cells used also in isosmolarity conditions of the bath solution (as noted in previously carried out whole-cell experiments).
# Finally, in order to evaluate a possible action of tamoxifen on the CFTR channel, having recorded the I/V in cells treated with tamoxifen for 24 hours, the replacement of the solution with one containing tamoxifen and CFTR inh (specific inhibitor of CFTR) (FIG. 3) was carried out.
# T1 sequence (P13569 with tags, fused parts or gaps DEL508-508): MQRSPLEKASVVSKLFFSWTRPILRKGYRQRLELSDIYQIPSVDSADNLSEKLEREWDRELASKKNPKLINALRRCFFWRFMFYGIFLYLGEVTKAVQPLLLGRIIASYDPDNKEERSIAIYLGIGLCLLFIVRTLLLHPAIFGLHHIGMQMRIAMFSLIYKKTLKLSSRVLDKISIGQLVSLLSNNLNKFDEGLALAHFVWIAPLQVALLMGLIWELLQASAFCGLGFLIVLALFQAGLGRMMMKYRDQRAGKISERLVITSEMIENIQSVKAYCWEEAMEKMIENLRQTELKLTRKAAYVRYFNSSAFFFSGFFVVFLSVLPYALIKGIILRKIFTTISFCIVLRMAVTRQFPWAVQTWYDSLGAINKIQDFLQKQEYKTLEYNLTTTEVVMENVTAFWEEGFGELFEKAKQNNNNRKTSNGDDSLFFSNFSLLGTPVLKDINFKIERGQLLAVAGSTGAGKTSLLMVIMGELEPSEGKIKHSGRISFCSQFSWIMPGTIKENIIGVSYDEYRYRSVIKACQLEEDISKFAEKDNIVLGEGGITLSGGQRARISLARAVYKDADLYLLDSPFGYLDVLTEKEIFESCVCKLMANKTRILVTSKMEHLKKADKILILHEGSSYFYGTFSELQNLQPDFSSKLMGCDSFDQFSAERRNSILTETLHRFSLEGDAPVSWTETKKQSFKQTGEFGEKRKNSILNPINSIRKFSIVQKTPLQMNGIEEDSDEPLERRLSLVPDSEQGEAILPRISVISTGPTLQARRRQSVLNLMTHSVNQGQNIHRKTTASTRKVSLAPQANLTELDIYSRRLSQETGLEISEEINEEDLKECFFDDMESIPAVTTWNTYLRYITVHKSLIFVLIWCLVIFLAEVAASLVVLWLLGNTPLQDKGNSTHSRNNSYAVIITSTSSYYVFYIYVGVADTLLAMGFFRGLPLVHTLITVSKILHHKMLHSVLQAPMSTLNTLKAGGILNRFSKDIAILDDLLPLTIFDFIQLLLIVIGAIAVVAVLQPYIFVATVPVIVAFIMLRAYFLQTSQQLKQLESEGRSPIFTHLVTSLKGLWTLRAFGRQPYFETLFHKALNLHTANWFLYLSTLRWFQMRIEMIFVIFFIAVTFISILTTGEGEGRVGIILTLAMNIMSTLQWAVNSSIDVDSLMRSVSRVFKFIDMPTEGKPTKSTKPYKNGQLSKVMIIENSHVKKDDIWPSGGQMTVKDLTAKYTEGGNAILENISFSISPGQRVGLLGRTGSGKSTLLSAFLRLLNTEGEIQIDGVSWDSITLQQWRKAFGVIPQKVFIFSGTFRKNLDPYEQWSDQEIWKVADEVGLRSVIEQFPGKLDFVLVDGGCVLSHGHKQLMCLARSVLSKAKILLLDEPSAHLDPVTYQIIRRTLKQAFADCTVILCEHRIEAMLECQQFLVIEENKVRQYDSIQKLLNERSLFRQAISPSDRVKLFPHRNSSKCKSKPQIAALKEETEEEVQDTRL
smiles,measurement,setting,value
CC/C(=C(\c1ccccc1)c1ccc(OCCN(C)C)cc1)c1ccccc1 [tamoxifen],current density compared to control conditions,[1]; CFBE or IB3-1 cells incubated 40 minutes with tamoxifen 5 μM (FIG. 1),significantly increased
same,effect on Ca-dependent chloride currents over time,[1]; cells incubated with 5 μM tamoxifen for 24 hours (FIG. 2),remains almost unchanged over time
same,effect on chloride currents in the presence of the inhibitor of CFTR,CFTR channel,does not change significantly
